Consider 18 molecules from patent US11802120B2, “Fused cyclic urea derivatives as CRHR2 antagonist” (RaQualia Pharma Inc., priority 2018, dated 2023).

One assay concerns the target T1, human CRHR1-beta (Homo sapiens, UniProt P34998).
T1 sequence (P34998 24-444 isoform P34998-1 limits assumed): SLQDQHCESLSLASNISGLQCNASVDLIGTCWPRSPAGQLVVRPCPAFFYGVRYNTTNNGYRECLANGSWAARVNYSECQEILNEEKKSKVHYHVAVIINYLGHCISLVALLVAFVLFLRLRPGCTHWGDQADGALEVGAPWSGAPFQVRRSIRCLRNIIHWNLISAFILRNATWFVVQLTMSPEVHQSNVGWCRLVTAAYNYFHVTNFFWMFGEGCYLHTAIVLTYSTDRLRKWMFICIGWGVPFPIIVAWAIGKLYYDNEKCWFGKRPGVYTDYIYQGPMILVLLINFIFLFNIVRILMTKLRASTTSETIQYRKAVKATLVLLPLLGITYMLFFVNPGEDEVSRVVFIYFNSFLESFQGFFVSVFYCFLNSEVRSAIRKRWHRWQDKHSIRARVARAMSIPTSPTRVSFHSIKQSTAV
In words: cAMP functional assay for human CRHR1 (LANCE Ultra cAMP, TR-FRET). It counts as cell-based. Particulars: CHO-K1 cells expressing human CRHR1-beta, agonist CRF at EC80, cAMP; read-out: IC50 against CRHR1. The method, then:
cAMP functional assay for human CRHR1 and CRHR2
The ability of the compounds of this invention to inhibit either CRHR2 or CRHR1 is assessed by 3′,5′-cyclic adenosine monophosphate (cAMP) production in cells using the LANCE Ultra cAMP assay kit (ParkinElmer), which are designed based on the homogeneous time-resolved fluorescence resonance energy transfer (TR-FRET) immunoassay.
CHO-K1 (Chinese hamster ovary) cells stably expressing either human CRHR2-alpha (DiscoveRX, Cat. 95-0048C2) or human CRHR1-beta (DiscoveRX, Cat. 95-0047C2) are grown in HAM's F12 media supplemented with 10% fetal bovine serum (FBS), 100 units/mL penicillin, 100 microg/mL hygromycin and 0.5 microg/mL geneticin at 37° C. in 5% CO2 humidified incubator to 80% confluence. After 7 hours starvation treatment in culture media containing 0.1% FBS, the cells are washed with Hanks balanced salt solution (HBSS) and cryopreserved.
For cAMP assay, frozen cells are thawed and washed with HBSS, followed by resuspended in assay buffer (HBSS containing 0.1% bovine serum albumin, 0.5 mM isobutylmethylxanthine and 5 mM Hepes, pH 7.4) at the appropriate concentration for the assay. The cell suspensions are plated on 384-well microplates (Greiner Bio-One) at a density of 4,000 cells per well. After preincubating the cells with various concentrations of the compounds for 30 min at 25° C., an assay buffer containing EC80 concentration of each agonist is added and the cells are incubated for 30 min at 25° C. Human urocortin2 (Peptide Institute) and CRF (Peptide Institute) are used as agonists for CRHR2 and CRHR1, respectively. For the termination of assay, europium-labeled cAMP tracer and ULight (registered trademark) dye labeled cAMP antibodies, both prepared with Lance-Ultra cAMP detection reagent (Perkin Elmer) are added in the plate and incubate for 60 min at 25° C. After incubation, TR-FRET signal is detected by EnVision plate reader (PerkinElmer). The IC50 values for compounds are calculated from dose-response curves by fitting the percent inhibition using XLfit (ID Business Solutions).
On the technique in general: In TR-FRET formats the signal depends on donor and acceptor labels being close together.

For another assay, the target named is T2, human CRHR2-alpha (Homo sapiens, UniProt Q13324).
T2 sequence (Q13324 1-411): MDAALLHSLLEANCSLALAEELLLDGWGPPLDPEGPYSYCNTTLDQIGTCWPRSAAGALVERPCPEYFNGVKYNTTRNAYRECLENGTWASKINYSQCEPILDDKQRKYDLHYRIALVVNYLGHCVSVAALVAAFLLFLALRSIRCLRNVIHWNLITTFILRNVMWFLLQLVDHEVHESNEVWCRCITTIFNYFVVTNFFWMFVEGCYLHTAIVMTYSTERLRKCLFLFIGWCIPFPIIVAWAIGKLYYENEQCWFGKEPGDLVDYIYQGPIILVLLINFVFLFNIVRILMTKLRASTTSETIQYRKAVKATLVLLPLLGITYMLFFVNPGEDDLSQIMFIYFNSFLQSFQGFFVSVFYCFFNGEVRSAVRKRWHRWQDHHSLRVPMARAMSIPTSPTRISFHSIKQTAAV
Nature of the assay: cAMP functional assay for human CRHR2 (LANCE Ultra cAMP, TR-FRET). It counts as cell-based. Particulars: CHO-K1 cells expressing human CRHR2-alpha, agonist human urocortin2 at EC80, cAMP; read-out: IC50 against CRHR2. The method, boiled down:
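CHO-K1 stable lines; 4,000 cells/well; compound 30 min, 25° C; EC80 agonist (human urocortin2 → CRHR2, CRF → CRHR1) 30 min, 25° C; buffer HBSS/0.1% BSA/0.5 mM IBMX/5 mM Hepes pH 7.4; Eu-cAMP tracer + ULight antibody 60 min; TR-FRET read; IC50 from % inhibition curves.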

Bounds are passed on as bounds.

As usually defined, the IC50 is the point on the concentration scale where inhibition reaches its midpoint. In the case of `Cc1ncc(Cl)cc1C(=O)N[C@H]1CC[C@H](Cn2c(=O)n(CC3CCOCC3)c3ccccc32)CC1` [Example 3, 5-chloro-2-methyl-N-((1r,4r)-4-((2-oxo-3-((tetrahydro-2H-pyran-4-yl)methyl)-2,3-dihydro-1H-benzo[d]imidazol-1-yl)methyl)cyclohexyl)nicotinamide], the IC50 at human CRHR1-beta was < 1000 nM.

As for `Cc1ncc(Cl)cc1C(=O)N[C@H]1CC[C@H](Cn2c(=O)n(-c3ccc(F)cc3)c3ccccc32)CC1` [Example 15, 5-chloro-N-((1r,4r)-4-((3-(4-fluorophenyl)-2-oxo-2,3-dihydro-1H-benzo[d]imidazol-1-yl)methyl)cyclohexyl)-2-methylnicotinamide], the 50% inhibitory concentration (IC50) on human CRHR1-beta was < 1000 nM; on human CRHR2-alpha, < 300 nM. For `CC(=O)c1ccc(-n2c(=O)n(C[C@H]3CC[C@H](NC(=O)c4cc(Cl)cnc4C)CC3)c3ccccc32)cc1` [Example 18, N((1r,4r)-4-((3-(4-acetylphenyl)-2-oxo-2,3-dihydro-1H-benzo[d]imidazol-1-yl)methyl)cyclohexyl)-5-chloro-2-methylnicotinamide], in that order: < 1000 nM and < 300 nM.

With `Cc1ncc(Cl)cc1C(=O)N[C@H]1CC[C@H](Cn2c(=O)n(-c3ccc(CO)cc3)c3ccccc32)CC1` [Example 21, 5-chloro-N-((1r,4r)-4-((3-(4-(hydroxymethyl)phenyl)-2-oxo-2,3-dihydro-1H-benzo[d]imidazol-1-yl)methyl)cyclohexyl)-2-methylnicotinamide], the IC50 on human CRHR1-beta is < 1000 nM. As to `Cc1ccc(-n2c(=O)n(C[C@H]3CC[C@H](NC(=O)c4cc(Cl)cnc4C)CC3)c3ccccc32)cc1` [Example 25, 5-chloro-2-methyl-N-((1r,4r)-4-((2-oxo-3-(p-tolyl)-2,3-dihydro-1H-benzo[d]imidazol-1-yl)methyl)cyclohexyl)nicotinamide], the IC50 is < 1000 nM at human CRHR1-beta and < 300 nM on human CRHR2-alpha.

In the case of `COc1ccc(-n2c(=O)n(C[C@H]3CC[C@H](NC(=O)c4cc(Cl)cnc4C)CC3)c3ccccc32)cc1` [Example 27, 5-chloro-N-((1r,4r)-4-((3-(4-methoxyphenyl)-2-oxo-2,3-dihydro-1H-benzo[d]imidazol-1-yl)methyl)cyclohexyl)-2-methylnicotinamide], the concentration for half-maximal inhibition (IC50) at human CRHR1-beta was < 1000 nM; on human CRHR2-alpha, < 300 nM. Take `Cc1ccc(-n2c(=O)n(C[C@H]3CC[C@H](NC(=O)c4cc(Cl)cnc4C)CC3)c3ccccc32)cn1` [Example 31, 5-chloro-2-methyl-N-((1r,4r)-4-((3-(6-methylpyridin-3-yl)-2-oxo-2,3-dihydro-1H-benzo[d]imidazol-1-yl)methyl)cyclohexyl)nicotinamide]: the IC50 at human CRHR1-beta was < 1000 nM. For the molecule `COc1ncc(-n2c(=O)n(C[C@H]3CC[C@H](NC(=O)c4cc(Cl)cnc4C)CC3)c3ccccc32)cn1` [Example 43, 5-chloro-N-((1r,4r)-4-((3-(2-methoxypyrimidin-5-yl)-2-oxo-2,3-dihydro-1H-benzo[d]imidazol-1-yl)methyl)cyclohexyl)-2-methylnicotinamide], at human CRHR1-beta, the IC50 is < 1000 nM. On the same count and under the same terms, next, `Cc1ncc(Cl)cc1C(=O)N[C@H]1CC[C@H](Cn2c(=O)n(-c3ccc(OCCN(C)C)nc3)c3c(C)cccc32)CC1` [Example 59, 5-chloro-N-((1r,4r)-4-((3-(6-(2-(dimethylamino)ethoxy)pyridin-3-yl)-4-methyl-2-oxo-2,3-dihydro-1H-benzo[d]imidazol-1-yl)methyl)cyclohexyl)-2-methylnicotinamide]: < 1000 nM. Still for that read-out and setting: the same measure for `Cc1ncc(Cl)cc1C(=O)N[C@H]1CC[C@H](Cn2c(=O)n(-c3ccc(N4CC[C@H](N(C)C)C4)nc3)c3ccccc32)CC1` [Example 61, 5-chloro-N-((1S,4r)-4-((3-(6-((S)-3-(dimethylamino)pyrrolidin-1-yl)pyridin-3-yl)-2-oxo-2,3-dihydro-1H-benzo[d]imidazol-1-yl)methyl)cyclohexyl)-2-methylnicotinamide]: < 1000 nM; for `Cc1ncc(Cl)cc1C(=O)N[C@H]1CC[C@H](Cn2c(=O)n(-c3ccc(N4CCN(CCO)CC4)nc3)c3ccccc32)CC1` [Example 65, 5-chloro-N-((1r,4r)-4-((3-(6-(4-(2-hydroxyethyl)piperazin-1-yl)pyridin-3-yl)-2-oxo-2,3-dihydro-1H-benzo[d]imidazol-1-yl)methyl)cyclohexyl)-2-methylnicotinamide]: < 1000 nM. Same read-out and setting: next, `Cc1ncc(Cl)cc1C(=O)N[C@H]1CC[C@H](Cn2c(=O)n(-c3ccc(N4CCN(C)CC4)nn3)c3ccccc32)CC1` [Example 68, 5-chloro-2-methyl-N-((1r,4r)-4-((3-(6-(4-methylpiperazin-1-yl)pyridazin-3-yl)-2-oxo-2,3-dihydro-1H-benzo[d]imidazol-1-yl)methyl)cyclohexyl)nicotinamide]: < 1000 nM; `Cc1ncc(Cl)cc1C(=O)N[C@H]1CC[C@H](Cn2c(=O)n(-c3ccc(OCCO)nn3)c3ccccc32)CC1` [Example 69, 5-chloro-N-((1r,4r)-4-((3-(6-(2-hydroxyethoxy)pyridazin-3-yl)-2-oxo-2,3-dihydro-1H-benzo[d]imidazol-1-yl)methyl)cyclohexyl)-2-methylnicotinamide]: < 1000 nM. As for `Cc1ncc(Cl)cc1C(=O)N[C@H]1CC[C@H](Cn2c(=O)n(-c3ccc(OCCN(C)C)cc3)c3ccccc32)CC1` [Example 73, 5-chloro-N-((1r,4r)-4-((3-(4-(2-(dimethylamino)ethoxy)phenyl)-2-oxo-2,3-dihydro-1H-benzo[d]imidazol-1-yl)methyl)cyclo-hexyl)-2-methylnicotinamide], the IC50 on human CRHR1-beta was < 1000 nM. Turning to `Cc1ncc(Cl)cc1C(=O)N[C@H]1CC[C@H](Cn2c(=O)n(-c3ccc(OC[C@H]4CNCCO4)nc3)c3ccccc32)CC1` [Example 74, 5-chloro-2-methyl-N-((1R,4r)-4-((3-(6-((R)-morpholin-2-ylmethoxy)pyridin-3-yl)-2-oxo-2,3-dihydro-1H-benzo[d]imidazol-1-yl)methyl)cyclohexyl)nicotinamide], the IC50 at human CRHR1-beta was < 1000 nM. Same read-out and setting: the same measure for `Cc1ncc(Cl)cc1C(=O)N[C@H]1CC[C@H](Cn2c(=O)n(-c3ccc(N4CC[C@H](O)C4)nc3)c3ccccc32)CC1` [Example 80, 5-chloro-N-((1S,4r)-4-((3-(6-((S)-3-hydroxypyrrolidin-1-yl)pyridin-3-yl)-2-oxo-2,3-dihydro-1H-benzo[d]imidazol-1-yl)methyl)cyclohexyl)-2-methylnicotinamide]: < 1000 nM; for `Cc1ncc(Cl)cc1C(=O)N[C@H]1CC[C@H](Cn2c(=O)n(-c3ccc(N4CC[C@@H](O)C4)nc3)c3ccccc32)CC1` [Example 81, 5-chloro-N-((1R,4r)-4-((3-(6-((R)-3-hydroxypyrrolidin-1-yl)pyridin-3-yl)-2-oxo-2,3-dihydro-1H-benzo[d]imidazol-1-yl)methyl)cyclohexyl)-2-methylnicotinamide]: < 1000 nM; for `Cc1ncc(Cl)cc1C(=O)N[C@H]1CC[C@H](CN2C(=O)N(c3ccccc3)Cc3ccccc32)CC1` [Example 136, 5-chloro-2-methyl-N-((1r,4r)-4-((2-oxo-3-phenyl-3,4-dihydro-quinazolin-1(2H)-yl)methyl)cyclohexyl)nicotinamide]: < 1000 nM.
